From US10921257B2, “Method and system of pesticide detection using SERS” (priority 2016, dated 2021)

Key:
[1] = tested on: apple; experiment: SERS depth mapping of pesticide and AuNPs penetration into apples (Example 2); settings: 100 mg/L
Experimental: Organic apples were carefully hand washed with ultrapure water for 3 min and air-dried before experiment to remove surface contaminants. Then a 5 μL aliquot from a 100 mg/L solution of each pesticide was pipetted onto the apple surface. After air-drying the pesticides, apple peels with ˜2.0×2.0 cm^2 area were cut from each treated apple using a sharp knife. To determine pesticide penetration with penetrative AuNPs, any interference caused by pesticide residues on the apple surface were removed by washing. Two different washing methods were investigated using either an acetic acid- or NaHCO3-containing solution. Each peel was immersed into 20 mL of either a 5% acetic acid or a 1% NaHCO3 solution for different times and gently rinsed with 200 mL of deionized water for 10 s, respectively. All washed samples were air-dried at room temperature for 10 min before being treated with AuNPs. After drying AuNPs for 1 h, SERS detection was performed on that area to evaluate washing effects. Ten discrete locations were randomly chosen on each apple peel sample and scanned. Similar samples were prepared without either washing method and were scanned as above for comparisons.
Following drying, the surface residues from each applied pesticide were washed off using either the NaHCO3 or acetic acid solution and a 5 μL aliquot of the 250 mg/L AuNPs solution was added as described above. After 1 h of drying, SERS depth mapping images were obtained using the confocal Raman instrument.
A DXR Raman microscope (Thermo Fisher Scientific, Madison, Wis., USA) with a 780 nm laser and a 20× long distance microscope objective was used in this study. Each sample was scanned from 400 to 2000 cm^−1 for a 2 s exposure time. […] Ten discrete locations were randomly chosen on each sample for analysis. For penetration studies, SERS depth mapping images were obtained using a 50 μm pinhole aperture and 1 mW laser power to control the confocal depths using a scanning depth of 300 μm. […] The step size of the depth mapping was 20 μm and one image contained 75 scanning spots. Raman images were integrated based on the characteristic peaks in the pesticide spectra using the Atlμs Function in the OMINCS software (Thermo Fisher Scientific). […] The differences among results were calculated using an analysis of variance (ANOVA) and a post hoc Duncan test with a confidence level of 95%.

[2] = tested on: grape; experiment: SERS depth mapping of pesticide and AuNPs penetration into grapes (Example 2); settings: 100 mg/L
Experimental: (§1) Organic grapes and spinach leaves were carefully hand washed as described above for apples before experiment to remove surface contaminants. In order to study pesticide penetration in grapes, the same two washing methods were used as presented above for apples. Grapes treated with each pesticides solution (100 mg/L) were washed with either a 5% acetic acid or 1% NaHCO3 solution. Washing effects were evaluated using the SERS methods and the penetration behaviors of each pesticide were monitored as for apple above. Pesticides penetration experiments on spinach leaves were carried out as described above for apple and grape.
(§2) A DXR Raman microscope (Thermo Fisher Scientific, Madison, Wis., USA) with a 780 nm laser and a 20× long distance microscope objective was used in this study. Each sample was scanned from 400 to 2000 cm^−1 for a 2 s exposure time. For measuring pesticides on both gold slides and fresh produce surfaces, Raman mapping was carried out using a 50 μm slit aperture and 5 mW laser power to maximize the signals. Ten discrete locations were randomly chosen on each sample for analysis. For penetration studies, SERS depth mapping images were obtained using a 50 μm pinhole aperture and 1 mW laser power to control the confocal depths using a scanning depth of 300 μm. Each depth scanning vertical to produce surface was randomly selected in apple peel, grape peel or spinach leaf with an area of 100 μm×300 μm. The step size of the depth mapping was 20 μm and one image contained 75 scanning spots. Raman images were integrated based on the characteristic peaks in the pesticide spectra using the Atlμs Function in the OMINCS software (Thermo Fisher Scientific). Statistical analysis was conducted using SPSS Statistics 22 software (IBM Corporation, Armonk, N.Y., USA). The differences among results were calculated using an analysis of variance (ANOVA) and a post hoc Duncan test with a confidence level of 95%.

[3] = tested on: spinach leaves; experiment: SERS depth mapping of pesticide and AuNPs penetration into spinach leaves (Example 2); settings: 100 mg/L
Experimental: as §1, §2

[4] = tested on: spinach leaves; experiment: SERS depth mapping of pesticide and AuNPs penetration into spinach leaves (Example 1); settings: 20 ppm
Experimental: These leaves were carefully washed with ultrapure water and dried before experimentation. […] A volume of 50 μL of each solution was then mixed with 50 μL of a 250 ppm 50 nm AuNPs solution for 1 min. at room temperature to ensure complete pesticide complexation with AuNPs through Au-thiol bond. 5 μL of each of the pre-prepared pesticide solution were then pipetted onto spinach leaves situated on a glass slide and air-dried in a fume hood for 30 min. […] All controls were air-dried in a fume hood as above. For evaluation of feasibility of Raman detection of pesticides on spinach leaves, 5 μL of the pre-prepared pesticide solution and AuNPs solution without pesticide were also dropped onto a gold slide and dried for 30 min in a hood for comparisons. Raman spectra were collected individually for all treatments.
After 1 h, bright field light scattering images and SERS mapping images were collected from all samples.
In order to remove any interference caused by pesticide residues on the spinach leaf surface, different washing methods were investigated. […] Then each leaf was immersed into 20 mL of deionized water or 20 mL of a 10 mg/mL of NaHCO3 solution. For the water washing method, each leaf was submerged into water for either 10 or 60 min. For the NaHCO3 washing method, each leaf was submerged into the NaHCO3 solution for 30, 60, 90, or 120 s and then gently rinsed with 500 mL of deionized water for 30 s, respectively. All washed leaf samples were air-dried at room temperature for 30 min before being treated with AuNPs. […]
After 1 h for drying, SERS depth mapping images were obtained using the confocal Raman instrument. Similar samples without washing were likewise measured for comparison purposes.
To study accurate systemic pesticide penetration, different washing methods were also used to remove surface thiabendazole residues. […] Surface thiabendazole residues were then analyzed by pipetting 5 μL of a 250 ppm AuNP solution onto the same leaf area where thiabendazole had been placed prior to washing and determining SERS depth mapping images by Raman instrument as before. […]

[5] = tested on: live basil leaves; experiment: SERS depth mapping of pesticide and AuNPs penetration into live basil leaves (Example 3)
Experimental: (§3) A 5 μL aliquot of the mixture was pipetted onto harvested leaves or onto the live leaves on the plant. After air drying for 30 min, SERS depth mapping images were obtained using a confocal Raman instrument as detailed below.
For the study of pesticide penetration into live basil leaves, 36 intact leaves (approximately 0.2 g per leaf) were selected from six live plants as the experimental target (6 leaves per plant) and carefully rinsed with 450 mL ultrapure water for 30 s and air-dried before the experiment to remove surface contaminants like dust. After rinsing, the clean leaves were used to study of pesticide penetration. […] Some of the pesticides might penetrate into leaves from the surface during the periods. After pesticide penetrated into leaves for different time periods, ultrapure water with flow rate of 15 mL/s was utilized to gently rinse the surface of leaves (Step 2). Different rinsing times were then investigated to complete removal of each pesticide residue on the surface. After rinsing of surface pesticide residues, all leaf samples were air-dried at room temperature for 30 min. […] The video camera in the Raman microscope was used to record the position on the leaves and help to find the same area for AuNPs deposition. After AuNPs treatment for drying 30 min, SERS detection was performed on that area using the confocal Raman instrument. Each treatment was performed twice.
For penetration studies, SERS depth mapping images were obtained using a 50 μm pinhole aperture and 3 mW laser power to control the confocal depth using a scanning depth of 300 μm. Each depth area (100 μm×300 μm) was chosen from the treated spot on the leaf distant from a gland because the gland is the cavity, not a flat surface. The step size of the depth mapping was 20 μm and one image contained 75 scanning spots. Raman images were integrated based on the characteristic peaks in the pesticide spectra using the Atlμs Function in the OMINCS software (Thermo Fisher Scientific). There was one spot on each leaf and one depth area was selected from each spot. For each pesticide depth mapping experiment, there were six duplicates with six leaves coming from three different plants (2 leaves from each plant).
Pesticide penetration was investigated using both intact and damaged leaves on live plants. Damaged leaves were prepared using a sharp knife to scratch the top surface of intact leaves. Each of the damaged leaves had 20 scrapes on each leaf and the distance between each scrape is 0.2 cm.

[6] = tested on: harvested basil leaves; experiment: SERS depth mapping of pesticide and AuNPs penetration into harvested basil leaves (Example 3); settings: 10 mg/L
Experimental: as §3
For the study of the pesticides penetration on harvested basil leaves, 36 intact leaves (0.2 g per leaf) were first cut off from petiole on live plants using a sharp knife and carefully rinsed as described above for live leaves. During the experiment, the stems of each harvested leaf were immersed into water to keep the leaf fresh. To study pesticide penetration into harvested leaves, the same rinsing method and pesticides penetration protocols were carried out as described above for live leaves.
For penetration studies, SERS depth mapping images were obtained using a 50 μm pinhole aperture and 3 mW laser power to control the confocal depth using a scanning depth of 300 μm. Each depth area (100 μm×300 μm) was chosen from the treated spot on the leaf distant from a gland because the gland is the cavity, not a flat surface. The step size of the depth mapping was 20 μm and one image contained 75 scanning spots. […] The differences among results were calculated using an independent sample T-test or analysis of variance (ANOVA) and a post hoc Duncan test with a confidence level of 95%.

[7] = 48 h exposure, surface residues washed off

`C/C(=N\C#N)N(C)Cc1ccc(Cl)nc1` [acetamiprid, (E)-N-[(6-chloro-3-pyridyl)methyl]-N′-cyano-N-methylethanimidamide] was tested, and the “Exposure time at which penetration was first observed” value [1] was 30 min, the Penetration depth [1, 7] was roughly 140 μm and the “Exposure time at which penetration was first apparent” value [2] was 30 min. The Penetration depth [2, 7] was “about 75 μm” and the Penetration depth [3, 7] was 90 μm.
For `c1ccc2[nH]c(-c3cscn3)nc2c1` [thiabendazole, 2-(4-thiazolyl)-1H-benzimidazole], the “Exposure time at which penetration was first observed” value [1] was 30 min, the Penetration depth ([1]; 24 h) was “about 140 μm” and the Penetration depth [1, 7] was “approximately 160 μm”. For the same compound, the “Exposure time at which penetration was first apparent” value [2] was 30 min, the Penetration depth ([2]; 24 h) was “about 36 μm” and the Penetration depth [2, 7] was “about 55 μm”. For the same compound, the “Earliest time of detecting pesticide inside leaves” value ([4]; surface residues washed off with NaHCO3) was 6 h, the “Penetration depth in depth mapping images with increasing exposure time” value ([4]; washed) was “approximately 150 μm” and the “Penetration depth from scans parallel to leaf surface at different depths” value ([4]; washed, 2 days exposure) was “approximately 210 μm”. The “Exposure time at which pesticide was first detected” value [3] was 30 min, the Penetration depth ([3]; 30 min) was 100 μm and the Penetration depth ([3]; 24 h) was roughly 160 μm. For the same compound, the Penetration depth [3, 7] was roughly 220 μm, the “Exposure time at which penetration was first seen” value ([5]; 10 mg/L, live leaves) was 30 min and the Penetration depth ([5]; 10 mg/L, live leaves, 48 h after exposure, surface rinsed) was roughly 225 μm. The Penetration depth ([5]; damaged (knife-scratched) leaves on live plants) was 80 μm, the Penetration depth ([5]; intact leaves on live plants) was 170 μm and the Penetration depth ([5]; large (old, 45 days) leaves, 24 h exposure) was 165 μm. For the same compound, the Penetration depth ([5]; small (young, 15 days) leaves, 24 h exposure) was 95 μm, the “Exposure time at which penetration was first seen” value [6] was 30 min and the Penetration depth ([6]; 48 h after exposure, surface rinsed) was “approximately 180 μm”.
In the case of `COP(=S)(OC)SCN1C(=O)c2ccccc2C1=O` [phosmet, O,O-dimethyl S-Phthalimido Methyl Phosphorodithioate], the “Exposure time at which pesticide was first detected” value [1] is reported as 6 h, the Penetration depth [1, 7] is reported as roughly 55 μm and the “Exposure time at which penetration was first observed” value [2] is reported as 48 h. For the same compound, the Penetration depth [2, 7] was “about 20 μm”, the “Exposure time at which pesticide was first detected” value [3] was 1440 min and the Penetration depth [3, 7] was 70 μm.
